# According to patent US6919327B2, “Texaphyrin coordination compounds and uses thereof” (Pharmacyclics, Inc., priority 2000, dated 2005):
# System: HepG2 cells
# Experiment: GdTex / LuTex cell association study in HepG2 cells
# Format: cell-based
# Conditions: 50 μM, 4 hours
# Description: The absorption of GdTex and LuTex, using different sources of the respective texaphyrin, in HepG2 cells was determined, by comparing absorption for GdTex and LuTex in the cell line in medium alone, in medium containing ascorbic acid, and using GdTex and LuTex that had been premixed with ascorbate for a period of time before exposure to the cell line.
# The HepG2 tumor cell line, a hepatocellular carcinoma, was obtained from the American Type Culture Collection (ATCC), Manassas, Va. (Catalog # HB-8065). The HepG2 cells were maintained in Eagle's Minimal Essential medium with Earl's BSS and 2 mM L-glutamine (EMEM) that is modified by ATCC to contain 1.0 mM sodium pyruvate, 0.1 mM nonessential amino acids, and 1.5 g/L sodium bicarbonate (ATCC, Cat. # 30-2003) and supplemented with 10% fetal bovine serum (FBS) FBS (Hyclone, Logan, Utah, Lot # AHF8559) and 100U penicillin/100 ug/ml streptomycin (Sigma, St. Louis, Mo.). Cells are fed 1 to 2 times weekly and passed at 3,000,000 cells per 75 cm tissue culture flask (Costar). Cells are passed using 0.25% trypsin, 0.02% EDTA solution (50/50 PBS/trypsin (Sigma)). Cells used were at the 96th passage at the time of use.
# HepG2 Cells were plated at a density of 500,000 cells per dish in 100 mm tissue culture dishes containing 10 mL of RPMI media (Gibco, Rockville, Md.) supplemented with 10% fetal bovine serum (Lot# AJC9908), and 100 U/mL penicillin/100 ug/mL streptomycin (Lot # 50K2308, Sigma, St. Louis, Mo.). Cells were plated out 1 to 2 days prior to treating with motexafin gadolinium.
# The day prior to treating the dishes with GdTex (9-19-00), an “aged” solution was prepared containing 50 μM GdTex, 100 μM ascorbate, and Catalase (at a concentration 1:1000 of the stock solution concentration provided by the vendor). This solution was incubated at 37° C. 5% CO2 for approximately 24 hours prior to addition to the appropriate test dishes.
# On the day of treatment, test solutions were prepared as shown in the Table I below in pre-incubated medium. […]
# [1] = freshly prepared solutions made in the presence of ascorbate (100 μM)
SMILES,association with HepG2 cells [1],association with HepG2 cells (in the absence of ascorbate)
"CC(=O)[O-].CC(=O)[O-].CCc1c(CC)c2cc3nc(cnc4cc(OCCOCCOCCOC)c(OCCOCCOCCOC)cc4ncc4nc(cc1[n-]2)C(CCCO)=C4C)C(C)=C3CCCO.O.[Gd+3] [GdTex, motexafin gadolinium]",comparable levels of association,smaller than corresponding LuTex cell association
"CC(=O)[O-].CC(=O)[O-].CCc1c(CC)c2cc3nc(cnc4cc(OCCOCCOCCOC)c(OCCOCCOCCOC)cc4ncc4nc(cc1[n-]2)C(CCCO)=C4C)C(C)=C3CCCO.O.[Lu+3] [LuTex, motexafin lutetium]",comparable levels of association,–
